# Where two headings read alike, the source gives them in different places.
# Tests used:
# Type in all cases: in vivo
# Plutella xylostella = assay: whole plant or invertebrate; conditions: Plutella xylostella, read-out: Plutella xylostella Mortality (%) 500 ppm
# Outline: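 Leaf immersion feeding test: 2nd-instar larvae (about 35 per vessel, 3 replicates) kept at 28° C. on 1.0 cm cabbage discs soaked 5 s in a 500 ppm solution with 0.05% Tween-80. Mortality after 24 h of exposure, calculated relative to live larvae in the Tween-80 control.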
# Spodoptera exigua = assay: whole plant or invertebrate; conditions: Spodoptera exigua, read-out: Spodoptera exigua Mortality (%) 500 ppm
# Outline: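 Leaf immersion feeding: second-instar larvae (about 35 per vessel, triplicate) kept at 28° C on discs treated with 500 ppm test solution in 0.05% Tween-80. Mortality at 24 h, calculated relative to surviving larvae in the solvent control.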
# Aphis craccivora = assay: whole plant or invertebrate; conditions: Aphis craccivora, read-out: Aphis craccivora Mortality (%) 500 ppm
# Outline: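 Mortality scored 24 h after treatment as the reduction in live aphids versus a 0.05% Tween-80 control; three replicates, 23° C. Treatment was a 5 s immersion of wingless adults on bean sprouts in 500 ppm test solution containing 0.05% Tween-80, followed by air-drying.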
# Solenopsis invicta = assay: whole plant or invertebrate; conditions: Solenopsis invicta, water test tube poison-feeding
# Outline: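 Mortality (%) of Solenopsis invicta, computed against live counts in control tubes, was recorded 24 h and 72 h after treatment at 25 °C. Compound was offered by oral feeding in test tubes at 100 ppm, diluted from a 10 g/L DMSO stock into water with 5% honey and 0.05% Tween-80.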
# Bombyx mori L. = assay: Toxicity test on 2nd-instar larvae of Bombyx mori L., leaf immersion feeding method; conditions: 1000 ppm, 24 hours
# Protocol: (1) Toxicity Test on 2nd-Instar Larvae of Bombyx mori L.
# Bombyx mori L. is an important economic insect sensitive to pesticides in an agricultural ecosystem, and is also one of the non-target organisms of environmental ecology listed in pesticide registration of China. The 2nd-instar larvae of Bombyx mori L. were used as test objects and tested by using a leaf immersion feeding method.
# Operation process: Samples were weighed accurately, and respectively added with 200 μL of dimethyl sulfoxide to prepare 10 g/L mother liquor which was diluted into a concentration of 1000 ppm with an aqueous solution containing 0.05% of Tween-80 during the test. Young cotyledons of mulberries were collected, washed and air-dried, immersed in a liquid medicine, taken out after 5 seconds, naturally air-dryed, and then transferred into a clean vessel. About 35 2nd -instar larvae of Bombyx mori L. were put into the vessel and fed at a constant temperature of 25° C. Each concentration was repeated 3 times, and an aqueous solution containing 0.05% of Tween-80 was used as a control group. After being treated for 24 hours, a number of dead Bombyx mori L. was counted, and a mortality (%) was calculated according to a formula that mortality (%)=(number of live larvae in the control group −number of treated live larvae)/number of live larvae in the control group * 100%.
# Apis cernan = assay: Toxicity test on adult worker bees of Apis cernan, small beaker method; conditions: 500 ppm, 48 hours
# Protocol: (2) Toxicity Test on Adult Worker Bees of Apis cernan.
# Adult worker bees of Apis cernan having the same size were selected for test. The worker bees were collected from beekeeping boxes in the daystart of the test day and tested by using a small beaker method.
# Operation process: A small amount of absorbent cotton was put into a 5 mL small beaker, 5 mL of a test liquid medicine (a concentration of 500 ppm) was dropped into the absorbent cotton, and stirred gently to make the absorbent cotton completely wet but not leached obviously, then the small beaker was put into a 500 mL large beaker, then 15 worker bees were put into the large beaker, and finally the large beaker was sealed with gauze. After treatment, the large beaker was placed in a dark room of an artificial climate box. After taking the medicine for 48 hours, a number of live and dead worker bees were investigated.
# [1] = 24 h, read-out: Solenopsis invicta Mortality (%) 100 ppm 24 h, 100 ppm, 24 h
# [2] = 72 h, read-out: Solenopsis invicta Mortality (%) 100 ppm 72 h, 100 ppm, 72 h
Compound,mortality at 500 ppm (Plutella xylostella) [%],mortality at 500 ppm (Spodoptera exigua; 24 h) [%],mortality at 500 ppm (Aphis craccivora; 24 h) [%],mortality at 100 ppm (Solenopsis invicta; [1]) [%],mortality at 100 ppm (Solenopsis invicta; [2]) [%],Toxicity determination Bombyx mori L. Mortality (%) (Bombyx mori L.),Toxicity determination Apis cernan Mortality (%) (Apis cernan),"mortality at 500 ppm (Plutella xylostella; 500 ppm, 2nd-instar larvae, leaf immersion feeding) [%]","mortality at 500 ppm (Spodoptera exigua; 500 ppm, 2nd-instar larvae, leaf immersion feeding, 24 hours) [%]","mortality at 500 ppm (Aphis craccivora; 500 ppm, wingless adults, impregnation method, 24 hours) [%]","mortality at 100 ppm (Solenopsis invicta; 24 h, 100 ppm, 24 h, read-out: Solenopsis invicta Mortality (%) 100 ppm 24 h) [%]","mortality at 100 ppm (Solenopsis invicta; 72 h, 100 ppm, 72 h, read-out: Solenopsis invicta Mortality (%) 100 ppm 72 h) [%]"
CCOC(=O)c1c(SC)nn2c1NC(C)(C)c1nc(F)ncc1-2 [Compound A44],100,90,100,26,93,8,8,–,–,–,–,–
CSc1nn2c(c1S(=O)(=O)c1ccccc1)NC(C)(C)c1nc(F)ncc1-2 [Compound A45],100,100,100,24,100,10,11,–,–,–,–,–
CC1(C)Nc2c(C#N)c(SCc3ccccc3)nn2-c2cnc(F)nc21 [Compound A46],86,100,100,20,87,7,2,–,–,–,–,–
"COc1ccc(-c2cn3c(c2C#N)NC(C#N)(C#N)c2ccc([N+](=O)[O-])cc2-3)cc1 [Compound B1, 2-(4-methoxybenzene)-8-nitropyrrole[1,2-α]quinazoline-3,5,5(4H)-tricyano]",100,100,100,20,100,0,0,–,–,–,–,–
COc1ccc(-c2cn3c(c2C#N)N(C)C(C#N)(C#N)c2ccc([N+](=O)[O-])cc2-3)cc1 [Compound B2],100,90,93,26,93,3,4,–,–,–,–,–
COc1ccc(-c2cn3c(c2C(C)=O)NC(C#N)(C#N)c2ccc([N+](=O)[O-])cc2-3)cc1 [Compound B3],100,100,100,24,100,0,3,–,–,–,–,–
COc1ccc(-c2cn3c(c2C(C)=O)NC(C(N)=O)(C(N)=O)c2ccc([N+](=O)[O-])cc2-3)cc1 [Compound B4],86,100,100,20,88,0,0,–,–,–,–,–
N#Cc1cn2c(c1C#N)NC(C#N)(C#N)c1ccc([N+](=O)[O-])cc1-2 [Compound B6],90,100,100,44,100,4,5,–,–,–,–,–
N#Cc1cn2c(c1C#N)NC(C#N)(C#N)c1ccc(N)cc1-2 [Compound B7],100,100,100,38,100,6,6,–,–,–,–,–
C=CC(=O)Nc1ccc2c(c1)-n1cc(C#N)c(C#N)c1NC2(C#N)C#N [Compound B8],100,100,100,45,100,5,4,–,–,–,–,–
N#Cc1cn2c(c1C#N)NC(C#N)(C#N)c1ccc(Br)cc1-2 [Compound B9],100,100,100,38,100,0,5,–,–,–,–,–
CS(=O)(=O)Nc1ccc2c(c1)-n1cc(C#N)c(C#N)c1NC2(C#N)C#N [Compound B10],100,95,100,30,90,3,3,–,–,–,–,–
COC(=O)Nc1ccc2c(c1)-n1cc(C#N)c(C#N)c1NC2(C#N)C#N [Compound B11],–,–,–,–,–,7,3,100,100,100,33,95
CNC(=O)Nc1ccc2c(c1)-n1cc(C#N)c(C#N)c1NC2(C#N)C#N [Compound B12],100,100,100,40,100,5,6,–,–,–,–,–
"C=CC1(CCl)Nc2cc(C#N)nn2-c2c(Cl)cc(C(F)(F)F)cc21 (stereo not drawn) [Compound C1, 9-chloro-7-trifluoromethylphenyl-5-chloromethyl-5-vinyl-4,5-dihydropyrrole[1,5-α]quinazoline-2-cyano]",89,100,100,20,100,7,7,–,–,–,–,–
C=CC1(CC(F)(F)F)Nc2cc(C#N)nn2-c2c(Cl)cc(C(F)(F)F)cc21 (centres unmarked) [Compound C2],100,90,100,26,93,5,10,–,–,–,–,–
C=CC1(C(F)(F)F)Nc2cc(C#N)nn2-c2c(Cl)cc(C(F)(F)F)cc21 (centres unmarked) [Compound C3],100,100,100,24,100,12,10,–,–,–,–,–
C=CC1Nc2cc(C#N)nn2-c2c(Cl)cc(C(F)(F)F)cc21 (centres unmarked) [Compound C4],86,76,100,20,87,3,0,–,–,–,–,–
C=CC1(CCl)Nc2c(-c3ccccc3C(F)(F)F)c(C#N)nn2-c2c(Cl)cc(C(F)(F)F)cc21 (centres unmarked) [Compound C9],100,100,100,39,100,8,9,–,–,–,–,–
C=CC1(CCl)Nc2c(-c3cc(C)oc3C)c(C#N)nn2-c2c(Cl)cc(C(F)(F)F)cc21 (centres unmarked) [Compound C10],100,85,100,27,100,10,9,–,–,–,–,–

# Source: patent US11401271B2, “Fused heterocyclic compound, pyrazole-ring-containing fused heterocyclic compound, agricultural composition containing thereof, and method of using the composition” (SOUTH CHINA AGRICULTURAL UNIVERSITY, priority 2017, dated 2022)
